Measured values from US8207329B2, “Synthesis of chlorins and phorbines with enhanced red spectral features” (North Carolina State University, priority 2005, dated 2012).
Several values for one entry are separate records, joined by “and”; a condition that tells them apart may be missing. Equal values may be shown once. Read-outs that look alike come from different tables or passages of the source. One block for each compound: values may come before it.

How the values were obtained:
[1] = Stability on storage and handling; format: physicochemical; details: for decomposes almost completely in solution within: in solution (such as in ethyl acetate or chlorinated solvent) even at 0° C.; for powdered solid stored without decomposition: in the refrigerator
[2] = Absorption spectra obtained in toluene at room temperature; format: physicochemical; details: for Qy band / B/Qy band intensity ratio: toluene at room temperature; for Qy band: normalized at the B bands; for ΔνQy: redshift relative to the parent chlorin (ZnC or Zn—M^10)
Excerpt: (§1) Absorption Spectra. The spectral properties of interest in the chlorins include the position of the long-wavelength Qy transition, the intensity of the Qy transition, and the fluorescence quantum yield of the chlorin. The intensity of the Qy transition can be assessed by the measured molar absorption coefficient; however, comparisons of such values are somewhat unreliable given the experimental variability encountered upon handling small quantities of materials. A better comparison is achieved by examination of the ratio of the intensities of the B and Qy bands for a given compound (B/Qy ratio), which is determined simply by absorption spectroscopy without requiring determination of the molar absorption coefficient. For a wide variety of applications, bathochromic and hyperchromic shifts of the Qy band are desired (i.e., shifted to longer wavelength and intensified), thereby affording strong absorption in the deep-red region.
General. ^1H NMR (400 MHz) and ^13C NMR (75 MHz) spectra were collected at room temperature in CDCl3. Absorption spectra were obtained in toluene at room temperature. Chlorins were analyzed by laser desorption mass spectrometry (LD-MS) in the absence of a matrix. Fast atom bombardment mass spectrometry (FAB-MS) data are reported for the molecule ion or protonated molecule ion. Melting points are uncorrected. All commercially available materials were used as received. All palladium-coupling reactions were carried out using standard Schlenk-line techniques.
as §1, with “B. Absorption” for “Absorption”, “Spectroscopy.” for “Spectra.”, “increased” for “intensified), thereby affording strong absorption”, “intensity).” for “the deep-red region.”
General. ^1H NMR (400 MHz) and ^13C NMR (75 MHz) spectra were collected at room temperature in CDCl3 unless noted otherwise. Absorption spectra were obtained in toluene at room temperature. Chlorins were analyzed by laser desorption mass spectrometry (LD-MS) in the absence of a matrix. Metalation of free base chlorins was monitored by fluorescence spectroscopy. Melting points are uncorrected. All commercially available materials were used as received.

[3] = Fluorescence spectra and fluorescence quantum yields in toluene at room temperature; format: physicochemical
Experimental: Fluorescence Spectroscopy. The fluorescence spectra and fluorescence quantum yields reported herein were collected in toluene at room temperature. Measurements of fluorescence quantum yield (Φf) were carried out using chlorin Zn-11 (Φf=0.065) as a standard (Strachan, J.-P. et al., J. Org. Chem. 2000, 65, 3160-3172).

[4] = cited from earlier work; for Qy band / εQy: chlorophylls; for Qy band: FIG. 3, in diethyl ether at room temperature; for εQy: Strain and Svec (FIG. 3)
[5] = Table 1, in toluene at room temperature
[6] = figure legends (FIG. 1, 2, 4, 5)
[7] = Table 1, literature value, in diethyl ether
[8] = Table 3, Ref Jones et al., in diethyl ether
[9] = Table 3, zinc chlorins in toluene at room temperature

stability (in words) [1]: decomposes partially at room temperature
Compound: CCCCB(CCCC)n1c(C(=O)c2ccc(C)cc2)ccc1C(c1ccc[nH]1)c1c(C)cc(C)cc1C (stereo not drawn) [Bu2B-3, 10-(Dibutylboryl)-5-mesityl-1-p-toluoyldipyrromethane]

B/Qy intensity ratio [2, 5]: 3.1
Log ε (M^−1cm^−1) (Qy band) [2, 5]: 4.69 M^−1cm^−1
λmax (nm), B [2, 5]: 420 nm
λmax (nm), Qy [2, 5]: 631 nm
Compound: CC(=O)c1cc2[n-]c1cc1nc(cc3ccc([n-]3)c(-c3ccc(C)cc3)c3nc(c2-c2c(C)cc(C)cc2C)C=C3)C(C)(C)C1.[Cu+2] [Cu-8, Cu(II)-13-Acetyl-17,18-dihydro-10-mesityl-18,18-dimethyl-5-p-tolylporphyrin]

B/Qy intensity ratio [2, 5]: 4.0
Log ε (M^−1cm^−1) (Qy band) [2, 5]: 4.65 M^−1cm^−1
λmax (nm), B [2, 5]: 414 nm
λmax (nm), Qy [2, 5]: 616 nm
Compound: Cc1ccc(C2=c3ccc4[n]3[Zn][n]3c(cc(Br)c3C=C3CC(C)(C)C(=N3)C=4)C(c3c(C)cc(C)cc3C)=C3C=CC2=N3)cc1 [Zn-6, Zn(II)-13-Bromo-17,18-dihydro-10-mesityl-18,18-dimethyl-5-p-tolylporphyrin]

redshift of the Qy band ([2]; Example 1, versus benchmark chlorin lacking the 13-substituent (Zn-11 or 11), toluene): 27 nm
B/Qy intensity ratio [2, 5]: 2.9
Log ε (M^−1cm^−1) (Qy band) [2, 5]: 4.75 M^−1cm^−1
λmax (nm), B [2, 5]: 424 nm
λmax (nm), Qy [2, 5]: 635 nm
Qy band [2, 6]: 632 nm
strong / dominant Qy(0,0) fluorescence band [3]: around 641 nm
weak emission feature / broad weak band [3]: 670-720 nm
fluorescence quantum yield (Φf) ([3]; standard Zn-11 (Φf=0.065)): 0.24
Compound: CC(=O)c1cc2[n]3c1=CC1=NC(=Cc4ccc([n]4[Zn]3)C(c3ccc(C)cc3)=C3C=CC(=N3)C=2c2c(C)cc(C)cc2C)C(C)(C)C1 [Zn-8, Zn(II)-13-Acetyl-17,18-dihydro-10-mesityl-18,18-dimethyl-5-p-tolylporphyrin]

Compound: C=Cc1c(C)c2cc3nc(c4c5[n-]c(cc6nc(cc1[n-]2)C(C=O)=C6CC)c(C)c5C(=O)[C@@H]4C(=O)OC)[C@@H](CCC(=O)OC/C=C(\C)CCC[C@H](C)CCC[C@H](C)CCCC(C)C)[C@@H]3C.[Zn+2] [Zn-chlorophyll b]
B/Qy intensity ratio [4, 7]: 2.9
λmax (nm), B [4, 7]: 446 nm
λmax (nm), Qy [4, 7]: 634 nm
B/Qy ratio [4, 8]: 2.9
λmax (nm), B [4, 8]: 446 nm
λmax (nm), Qy [4, 8]: 634 nm

ΔνQy ([2]; Table 3, toluene): 1320 cm⁻¹
B/Qy ratio [2, 9]: 1.2
λmax (nm), B [2, 9]: 428 nm
λmax (nm), Qy [2, 9]: 655 nm
Qy band [2, 6]: 655 nm
B/Qy band intensity ratio ([2]; figure legends (FIG. 4, 5)): 1.2
Compound: CC(=O)c1cc2[n]3c1C=C1CC(C)(C)C(=N1)C=c1cc(C#C[Si](C(C)C)(C(C)C)C(C)C)c([n]1[Zn]3)=CC1=NC(=C2)C=C1 [ZnC-E^3A^13]

ΔνQy ([2]; Table 3, toluene): 1080 cm⁻¹
B/Qy ratio [2, 9]: 1.4
λmax (nm), B [2, 9]: 421 nm
λmax (nm), Qy [2, 9]: 645 nm
Qy band ([2]; figure legends (FIG. 4, 5)): 645
Compound: CC(C)[Si](C#Cc1cc2[n]3c1C=C1CC(C)(C)C(=N1)C=c1cc(C#C[Si](C(C)C)(C(C)C)C(C)C)c([n]1[Zn]3)=CC1=NC(=C2)C=C1)(C(C)C)C(C)C [ZnC-E^3E^13]

ΔνQy ([2]; Table 3, toluene): 1160 cm⁻¹
B/Qy ratio [2, 9]: 1.5
λmax (nm), B [2, 9]: 428 nm
λmax (nm), Qy [2, 9]: 652 nm
Qy band ([2]; figure legend (FIG. 4)): 652
B/Qy band intensity ratio ([2]; figure legends (FIG. 4, 5)): 1.5
Compound: CC(=O)c1cc2[n]3c1C=C1CC(C)(C)C(=N1)C=c1cc(C#C[Si](C(C)C)(C(C)C)C(C)C)c([n]1[Zn]3)=CC1=NC(=C2c2c(C)cc(C)cc2C)C=C1 [ZnC-E^3M^10A^13, Zn(II)-13-Acetyl-3-[2-(triisopropylsilyl)ethynyl]-17,18-dihydro-10-mesityl-18,18-dimethylporphyrin]

ΔνQy ([2]; Table 3, toluene): 1020 cm⁻¹
B/Qy ratio [2, 9]: 1.6
λmax (nm), Qy [2, 9]: 646 nm
Qy band [2, 6]: 646 nm
Compound: Cc1cc(C)c(C2=c3cc(C#C[Si](C(C)C)(C(C)C)C(C)C)c4[n]3[Zn][n]3c(cc(C#C[Si](C(C)C)(C(C)C)C(C)C)c3C=C3C=CC2=N3)C=C2N=C(C=4)CC2(C)C)c(C)c1 [ZnC-E^3M^10E^13, Zn(II)-3,13-Bis[2-(triisopropylsilyl)ethynyl]-17,18-dihydro-10-mesityl-18,18-dimethylporphyrin]

ΔνQy ([2]; Table 3, toluene): 680 cm⁻¹
B/Qy ratio [2, 9]: 2.2
λmax (nm), B [2, 9]: 418 nm
λmax (nm), Qy [2, 9]: 632 nm
Qy band ([2]; figure legends (FIG. 4, 5)): 632
Compound: CC(=O)c1cc2[n]3c1C=C1CC(C)(C)C(=N1)C=c1ccc([n]1[Zn]3)=CC1=NC(=C2c2c(C)cc(C)cc2C)C=C1 [ZnC-M^10A^13, Zn(II)-13-Acetyl-17,18-dihydro-10-mesityl-18,18-dimethylporphyrin]

ΔνQy ([2]; Table 3, toluene): 530 cm⁻¹
B/Qy ratio [2, 9]: 2.3
λmax (nm), B [2, 9]: 412 nm
λmax (nm), Qy [2, 9]: 626 nm
Compound: Cc1cc(C)c(C2=c3cc(C#C[Si](C(C)C)(C(C)C)C(C)C)c4[n]3[Zn][n]3c(ccc3C=C3N=C(C=4)CC3(C)C)C=C3C=CC2=N3)c(C)c1 [ZnC-M^10E^13, Zn(II)-13-[2-(Triisopropylsilyl)ethynyl]-17,18-dihydro-10-mesityl-18,18-dimethylporphyrin]

ΔνQy ([2]; Table 3, toluene): 400 cm⁻¹
B/Qy ratio [2, 9]: 3.3
λmax (nm), B [2, 9]: 413 nm
λmax (nm), Qy [2, 9]: 621 nm
Compound: C=Cc1cc2[n]3c1C=C1C=CC(=N1)C(c1c(C)cc(C)cc1C)=c1ccc([n]1[Zn]3)=CC1=NC(=C2)C(C)(C)C1 [ZnC-V^3M^10, Zn(II)-17,18-Dihydro-10-mesityl-18,18-dimethyl-3-vinylporphyrin]

Compound: C=Cc1c(C)c2cc3nc(c4c5[n-]c(cc6nc(cc1[n-]2)C(C)=C6CC)c(C)c5C(=O)[C@@H]4C(=O)OC)[C@@H](CCC(=O)OC/C=C(\C)CCC[C@H](C)CCC[C@H](C)CCCC(C)C)[C@@H]3C.[Mg+2] [chlorophyll a]
B/Qy intensity ratio [4, 7]: 1.3
λmax (nm), B [4, 7]: 430 nm
λmax (nm), Qy [4, 7]: 662 nm
B band ([4]; chlorophyll a, text (FIG. 3)): 430 nm
Qy band [4]: 662 nm
εQy [4]: 86,300 M^−1cm^−1

Compound: C=Cc1c(C)c2cc3nc(c4c5[n-]c(cc6nc(cc1[n-]2)C(C=O)=C6CC)c(C)c5C(=O)[C@@H]4C(=O)OC)[C@@H](CCC(=O)OC/C=C(\C)CCC[C@H](C)CCC[C@H](C)CCCC(C)C)[C@@H]3C.[Mg+2] [chlorophyll b]
Qy band [4]: 642 nm and 644 nm
εQy [4]: 56,100 M^−1cm^−1

decomposes almost completely in solution within [1]: 8 to 10 h
decomposed almost completely in solution within ([1]; purified compound in solution even at 0° C.): 8 to 10 h
powdered solid stable on storage without decomposition ([1]; storage at −10° C.): 1 to 2 days
Compound: Cc1ccc(C(=O)c2ccc(C(c3cc(Br)c(Br)[nH]3)c3c(C)cc(C)cc3C)[nH]2)cc1 (stereo not drawn) [compound 4, 8,9-Dibromo-5-mesityl-1-(4-methylbenzoyl)dipyrromethane]

powdered solid stored without decomposition [1]: 2-3 weeks
Compound: O=Cc1ccc(Cc2cc(Br)c(Br)[nH]2)[nH]1 [compound 14, 8,9-Dibromo-1-formyldipyrromethane]

decomposes almost completely in solution within [1]: 18 to 20 h
powdered solid stored without decomposition [1]: 5 to 7 days
Compound: Cc1cc(C)c(C(c2ccc(C=O)[nH]2)c2cc(Br)c(Br)[nH]2)c(C)c1 (stereo not drawn) [compound 16, 8,9-Dibromo-1-formyl-5-mesityldipyrromethane]

colour change from yellow to black indicating partial decomposition ([1]; neat or in solution, at room temperature): 1 to 2 days
Compound: CC(=O)CC(C)(C)C(Cc1ccc[nH]1)[N+](=O)[O-] (stereo not drawn) [compound 19, 4,4-Dimethyl-5-nitro-6-(1H-pyrrol-2-yl)hexan-2-one]

ΔνQy ([2]; Table 3, toluene): 550 cm⁻¹
B/Qy ratio [2, 9]: 2.3
λmax (nm), B [2, 9]: 416 nm
λmax (nm), Qy [2, 9]: 627 nm
Compound: Zn(II)-3-(2-(Triisopropylsilyl)ethynyl)-17,18-dihydro-10-mesityl-18,18-dimethylporphyrin [ZnC-E^3M^10]

Compound: pheophytin a
B/Qy intensity ratio [4, 7]: 2.1
Log ε (M^−1cm^−1) (Qy band) [4, 7]: 5.12
λmax (nm), B [4, 7]: 408 nm
λmax (nm), Qy [4, 7]: 667 nm
